EC50 data for 18 molecules are collected here from patent US20190388421A1, “NOVEL COMPOUNDS AND PHARMACEUTICAL COMPOSITIONS THEREOF FOR THE TREATMENT OF FIBROSIS” (Galapagos NV, priority 2016, published 2019).

The target of assay [1] is T1, human GPCR sphingosine 1-phosphate receptor 2 (S1PR2) (Homo sapiens, UniProt O95136).
T1 construct: host or cells: CHO
Put plainly: S1P2 antagonist assay (Ca2+ flux, S1P at EC80). The format is cell-based. The note with it: CHO-S1PR2 cells, highest concentration 20 μM. The method, then:
Triggering of S1PR2 by administration of Sphingosine-1-phosphate leads to a transient increase in intracellular Ca^2+. The Ca^2+ flux assays are measuring the release of Ca^2+ intracellularly by use of a Ca^2+ sensitive fluorescent dye. The assay is firstly run in agonist mode (incubation of compounds alone) to ensure that the Ca^2+ released measured is not caused by the test compound having an agonistic effect. Then the assay is continued in antagonist mode (Sphingosine-1-Phosphate added to incubated medium containing the test compounds).
CHO cells stably overexpressing human GPCR sphingosine 1-phosphate receptor 2 (CHO—S1PR2 Perkin Elmer; ES-594-A) are seeded from a frozen stock in 384 wells sterile microplates (50 μL; 7,500 cells/well) and are incubated overnight at 37° C. and 5% CO2. The next day cells are washed twice with starvation medium (F-12 Ham's medium containing 0.1% BSA (Fatty acid free: FAF)) and left in […] starvation medium for 1 h at 37° C., 5% CO2. After this starvation cells are incubated with […] buffer containing the Ca^2+-sensitive fluorescent dye (0.5 mg Fluo8+125 mg Allura Red in 100 ml of 1% DMSO, in HBSS+20 mM Hepes+5 mM probenecid). The cells are incubated for an additional 1 hour after which 10 μL compounds, diluted in HBSS buffer with 20 mM Hepes and 0.1% BSA (FAF), are added to the cells and intracellular Ca^2+ changes are immediately measured by reading fluorescence during 3 min (FDSS/μCELL reader). The ratio of the maximal fluorescence over the background fluorescence before compound injection is used to determine compound response.
(§1) After readout of the agonist activity, the plates are incubated for 15 min at 37° C. and 5% CO2. Then, cells are stimulated with 10 μL Sphingosine-1-Phosphate (S1P) (Avanti Polar lipids-860492P) at its EC80 concentration. Intracellular Ca^2+ changes are immediately measured by reading fluorescence during 3 min (FDSS/μCELL reader). The ratio of the maximal fluorescence over the background fluorescence before compound injection is used to determine compound response.
(§2) For EC50 determination, a 10 point dilution series of compounds starting from 23.3 μM and 20 μM highest final concentration for agonist and antagonist respectively, ⅓ dilution was performed.
(§3) The obtained ratio's for agonist and antagonist readout were normalized versus vehicle and EC100 of S1P as controls for agonist mode and versus vehicle and EC80 of S1P for antagonist mode. From these normalized data EC50 of the compounds are derived.
(In general: Calcium flux is commonly read through the fluorescence of an indicator in the cells.)

In a further assay the target is T2, S1PR2 (Homo sapiens, UniProt O95136).
T2 construct: expressed in transfected cells
T2 sequence (O95136 whole entry): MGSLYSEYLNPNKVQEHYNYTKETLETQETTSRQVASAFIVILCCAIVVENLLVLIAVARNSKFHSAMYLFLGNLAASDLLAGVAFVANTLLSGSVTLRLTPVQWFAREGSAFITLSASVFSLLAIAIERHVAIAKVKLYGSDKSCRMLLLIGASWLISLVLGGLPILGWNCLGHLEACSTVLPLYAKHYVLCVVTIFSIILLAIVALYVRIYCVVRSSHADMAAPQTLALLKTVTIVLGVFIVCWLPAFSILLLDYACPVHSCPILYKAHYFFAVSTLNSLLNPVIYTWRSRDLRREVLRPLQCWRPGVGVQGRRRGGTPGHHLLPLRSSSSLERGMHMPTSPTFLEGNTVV
Put plainly: GTP-γS binding assay ([35S]GTPγS, S1P at EC80, S1PR2 membranes). Type of assay: biochemical. Particulars: membranes from stable cell line over expressing S1PR2, read-out: S1PR2 EC. The method, then:
The following assay can be used for determination of S1PR2 activation. The [^35S] GTPγS assay measures the level of G protein activation following agonist occupation of a GPCR, by determining the binding of the non-hydrolysable analog [^35S] GTPγS to Gα subunits.
The assay is performed in a 96 well plate where the following reagents are added. First 50 μL compound is added into the assay plate, followed by addition of 20 μL S1P at EC80 concentration (concentration which gives 80% of the activity of S1PR2). Then, 30 μL of a mixture consisting of membranes-GTPγS-SpA beads is added [mixture consists of 2.5 μg/well membranes derived from stable cell line over expressing S1PR2 (membranes are pre-incubated with 1 μM GDP for 15 min at 4° C.), 0.1 nM [35S]GTPγS (Perkin Elmer, NEG030) and 0.5 mg/well PVT-WGA SpA beads (Perkin Elmer, RPNQ0001)]. All components are diluted in assay buffer containing 20 mM Tris pH 7.5; 10 mM MgCl2; 100 mM NaCl; 0.1% BSA FAF; 50 ug/ml saponin. After an incubation for 4 h at room temperature, plates are centrifuged at 2000 rpm during 20 min. Plates are read on a Topcount reader (Perkin Elmer) immediately after centrifugation (readout time, 1 min/well).
On the technique in general: GTPγS resists hydrolysis and so accumulates on activated G proteins.

Assay [2] concerns the target T3, human GPCR sphingosine 1-phosphate receptor 5 (S1PR5) (Homo sapiens, UniProt Q9H228).
T3 construct: host or cells: CHO
In words: S1PR5 selectivity assay (Ca2+ flux, antagonist, S1PR5 specific agonist trigger). Type of assay: cell-based. Particulars: S1P5 antagonist EC50, CHO cells overexpressing human S1PR5 and Gq protein. The method, then: as §1, §2, §3
(§4) To evaluate the selectivity of the compounds for S1PR2 over S1PR1 and S1PR5, a similar assay set up as described above for the S1PR2 calcium flux assays was performed: CHO cells stably overexpressing human GPCR sphingosine 1-phosphate receptor 1 and Gq protein (Euroscreen, FAST-0197A) or overexpressing human GPCR sphingosine 1-phosphate receptor 5 and Gq protein were used (Perkin Elmer, ES-593-A). In case of the S1PR5 assay triggering was done with an S1PR5 specific agonist instead of with S1P (Hobson et al., 2015).

Assay [3] has as its target T4, human GPCR sphingosine 1-phosphate receptor 1 (S1PR1) (Homo sapiens, UniProt P21453).
T4 construct: host or cells: CHO
In words: S1PR1 selectivity assay (Ca2+ flux, antagonist). The note with it: S1P1 antagonist EC50, CHO cells overexpressing human S1PR1 and Gq protein. Type of assay: cell-based. The method, then: as §1, §2, §3, §4

The structures appear in SMILES notation.

T1 sequence (O95136 whole entry): as above
T3 sequence (Q9H228 whole entry): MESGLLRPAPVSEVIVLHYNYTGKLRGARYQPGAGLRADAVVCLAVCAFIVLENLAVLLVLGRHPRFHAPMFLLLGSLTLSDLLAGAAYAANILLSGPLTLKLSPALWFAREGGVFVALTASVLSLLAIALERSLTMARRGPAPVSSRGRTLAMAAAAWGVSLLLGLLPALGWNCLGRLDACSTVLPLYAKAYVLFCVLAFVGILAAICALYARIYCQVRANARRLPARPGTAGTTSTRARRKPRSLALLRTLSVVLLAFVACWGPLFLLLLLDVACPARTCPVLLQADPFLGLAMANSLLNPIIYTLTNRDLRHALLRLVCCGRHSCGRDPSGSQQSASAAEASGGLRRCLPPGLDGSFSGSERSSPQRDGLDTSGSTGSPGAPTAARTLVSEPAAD
T4 sequence (P21453 whole entry): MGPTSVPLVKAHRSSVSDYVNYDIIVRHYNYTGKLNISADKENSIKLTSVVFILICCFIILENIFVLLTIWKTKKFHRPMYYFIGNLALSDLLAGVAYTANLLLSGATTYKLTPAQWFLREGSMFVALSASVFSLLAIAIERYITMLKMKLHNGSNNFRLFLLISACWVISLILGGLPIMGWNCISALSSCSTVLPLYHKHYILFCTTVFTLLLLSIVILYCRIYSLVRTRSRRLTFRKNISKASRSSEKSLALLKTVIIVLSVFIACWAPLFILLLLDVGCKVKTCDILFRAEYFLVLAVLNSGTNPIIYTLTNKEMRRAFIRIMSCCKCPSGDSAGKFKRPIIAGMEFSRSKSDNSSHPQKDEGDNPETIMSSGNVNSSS

As to `Cc1cc(CNC(=O)Nc2cc(OCC3CC3(F)F)nc(C(F)(F)F)c2)nnc1-c1cn(C)nc1C(F)(F)F` (stereo not shown) [Compound 33, 1-[2-[(2,2-difluoro-cyclopropyl)methoxy]-6-(trifluoromethyl)-4-pyridyl]-3-[[5-methyl-6-[1-methyl-3-(trifluoromethyl)pyrazol-4-yl]pyridazin-3-yl]methyl]urea], the results for the EC50 (in assay [1]; on S1PR2) were 37.1 nM and 164 nM, respectively. Regarding `Cc1cc(CNC(=O)Nc2cc(OCC(F)F)nc(C(F)(F)F)c2)nnc1-c1cn(C)nc1C(F)(F)F` [Compound 19, 1-[2-(2,2-difluoroethoxy)-6-(trifluoromethyl)-4-pyridyl]-3-[[5-methyl-6-[1-methyl-3-(trifluoromethyl)pyrazol-4-yl]pyridazin-3-yl]methyl]urea], the figures for the EC50 (in assay [1]; at S1PR2) were 17.1 nM and 88.7 nM, respectively. Consider `CCOc1cc(NC(=O)NCc2cc(C)c(N3CC(C)O[C@H](C)C3)nn2)cc(C(F)(F)F)n1` (stereo in doubt) [Compound 100, 1-[[6-[(2R,6S)-2,6-dimethyl-morpholin-4-yl]-5-methyl-pyridazin-3-yl]methyl]-3-(2-ethoxy-6-(trifluoromethyl)-4-pyridyl]urea], for which the results for the EC50 in assay [2] and in assay [3] were 2480 nM and 6610 nM, respectively. Consider `Cc1cc(CNC(=O)Nc2cnc(OCC3CC3)c(Cl)c2)nnc1N1CC(C)OC(C)C1` (stereo not shown) [Compound 88, 1-[5-chloro-6-(cyclopropyl-methoxy)-3-pyridyl]-3-[[6-(2,6-dimethyl-morpholin-4-yl)-5-methyl-pyridazin-3-yl]methyl]urea], for which the EC50 in assay [1] is 4510 nM. Consider `Cc1cc(CNC(=O)Nc2cnc(OCC3CC3)c(Cl)c2)nnc1-c1cn(C)nc1C(F)(F)F` [Compound 13, 1-[5-chloro-6-(cyclopropyl-methoxy)-3-pyridyl]-3-[[5-methyl-6-[1-methyl-3-(trifluoromethyl)pyrazol-4-yl]pyridazin-3-yl]methyl]urea], for which the EC50 is 40.3 nM in assay [1] and 1120 nM on S1PR2. For the molecule `Cc1cc(CNC(=O)Nc2cc(Cl)cc(Cl)c2)nnc1-c1cn(C)nc1C(F)(F)F` [Compound 6, 1-(3,5-dichlorophenyl)-3-[[5-methyl-6-[1-methyl-3-(trifluoromethyl)pyrazol-4-yl]pyridazin-3-yl]methyl]urea], the EC50 in assay [1] was 16.9 nM; on S1PR2, 50.2 nM. Regarding `CCOc1nc(C)cc(NC(=O)NCc2cc(C)c(N3C[C@@H](C)O[C@@H](C)C3)nn2)c1C` [Compound 95, 1-[[6-[(2R,6S)-2,6-dimethyl-morpholin-4-yl]-5-methyl-pyridazin-3-yl]methyl]-3-(2-ethoxy-3,6-dimethyl-4-pyridyl)urea], the results for the EC50 in assay [2] and in assay [3] were 809 nM and 6610 nM, respectively. For `Cc1cc(CNC(=O)Nc2cnc(OCC(F)(F)F)c(C(F)(F)F)c2)nnc1-c1cn(C)nc1C(F)(F)F` [Compound 12, 1-[[5-methyl-6-[1-methyl-3-(trifluoromethyl)pyrazol-4-yl]pyridazin-3-yl]methyl]-3-[6-(2,2,2-trifluoroethoxy)-5-(trifluoromethyl)-3-pyridyl]urea], the results for the EC50 (in assay [1]; on S1PR2) were 11.7 nM and 590 nM, respectively. With `CCOc1ncc(NC(=O)NCc2cc(C)c(N3CC(C)OC(C)C3)nn2)cc1Cl` (stereo not shown) [Compound 86, 1-(5-chloro-6-ethoxy-3-pyridyl)-3-[[6-(2,6-dimethyl-morpholin-4-yl)-5-methyl-pyridazin-3-yl]methyl]urea], the EC50 in assay [1] was 1360 nM.

Regarding `Cc1cc(CNC(=O)Nc2cc(Cl)c(F)c(Cl)c2)nnc1-c1cn(C)nc1C(F)(F)F` [Compound 32, 1-(3,5-dichloro-4-fluoro-phenyl)-3-[[5-methyl-6-[1-methyl-3-(trifluoromethyl)pyrazol-4-yl]pyridazin-3-yl]methyl]urea], the EC50 in assay [1] came out at 11.1 nM; at S1PR2, 164 nM. Turning to `Cc1cc(CNC(=O)Nc2cc(Cl)nc(OCC(F)(F)F)c2)nnc1-c1cn(C)nc1C(F)(F)F` [Compound 14, 1-[2-chloro-6-(2,2,2-trifluoroethoxy)-4-pyridyl]-3-[[5-methyl-6-[1-methyl-3-(trifluoromethyl)pyrazol-4-yl]pyridazin-3-yl]methyl]urea], the results for the EC50 (in assay [1]; at S1PR2) were 24.2 nM and 225 nM, respectively.

Regarding `Cc1cc(CNC(=O)Nc2cc(OCC3CCOC3)nc(C(F)(F)F)c2)nnc1-c1cn(C)nc1C(F)(F)F` (stereo not shown) [Compound 36], the EC50 in assay [1] was 791 nM; at S1PR2 it was 1800 nM. In the same order, the values of `Cc1cc(CNC(=O)Nc2cc(OCC(F)F)nc(C3CC3)c2)nnc1-c1cn(C)nc1C(F)(F)F` [Compound 29, 1-[2-cyclopropyl-6-(2,2-difluoroethoxy)-4-pyridyl]-3-[[5-methyl-6-[1-methyl-3-(trifluoromethyl)pyrazol-4-yl]pyridazin-3-yl]methyl]urea] are 27.3 nM and 275 nM.

In assay [1], `CCOc1nc(C(F)(F)F)cc(NC(=O)NCc2cc(C)c(-c3cn(C)nc3C(F)(F)F)nn2)c1Br` [Compound 49, 1-[3-bromo-2-ethoxy-6-(trifluoromethyl)-4-pyridyl]-3-[[5-methyl-6-[1-methyl-3-(trifluoromethyl)pyrazol-4-yl]pyridazin-3-yl]methyl]urea] registered an EC50 of 11.5 nM. In assay [1], `Cc1cc(CNC(=O)Nc2cnc(OCC(F)F)c(Cl)c2)nnc1N1CC(C)OC(C)C1` (stereo not shown) [Compound 84, 1-[5-chloro-6-(2,2-difluoroethoxy)-3-pyridyl]-3-[[6-(2,6-dimethyl-morpholin-4-yl)-5-methyl-pyridazin-3-yl]methyl]urea] displayed an EC50 of 6510 nM. As to `CCOc1cc(N[14C](=O)NCc2cc(C)c(-c3cn(C)nc3C(F)(F)F)nn2)cc(C(F)(F)F)n1` [Compound 98, 1-(2-Ethoxy-6-trifluoromethyl-pyridin-4-yl)-3-[5-methyl-6-(1-methyl-3-trifluoromethyl-1H-pyrazol-4-yl)-pyridazin-3-ylmethyl]-C14 urea], at S1PR2, the EC50 came to 16300 nM. Turning to `Cc1cc(CNC(=O)Nc2cnc(OCC3CC3)c(C(F)(F)F)c2)nnc1-c1cn(C)nc1C(F)(F)F` [Compound 11, 1-[6-cyclopropyl-methoxy-5-(trifluoromethyl)-3-pyridyl]-3-[[5-methyl-6-[1-methyl-3-(trifluoromethyl)pyrazol-4-yl]pyridazin-3-yl]methyl]urea], the EC50 was determined as 49.6 nM in assay [1] and 716 nM on S1PR2. With `CCOc1cc(NC(=O)NCc2cc(C)c(-c3cn(C)nc3C(F)(F)F)nn2)nc(OCC)n1` [Compound 31, 1-(2,6-diethoxy-pyrimidin-4-yl)-3-[[5-methyl-6-[1-methyl-3-(trifluoromethyl)pyrazol-4-yl]pyridazin-3-yl]methyl]urea], the values for the EC50 (in assay [1]; on S1PR2) were 3140 nM and 1650 nM, respectively.
